Read-outs that look alike come from different tables or passages of the source.
How the values were obtained:
LmxCLK1 = target: T1, LmxCLK1 (Leishmania mexicana, UniProt E9AMP2); test: biochemical; type: binding
T1 sequence (E9AMP2 1-422): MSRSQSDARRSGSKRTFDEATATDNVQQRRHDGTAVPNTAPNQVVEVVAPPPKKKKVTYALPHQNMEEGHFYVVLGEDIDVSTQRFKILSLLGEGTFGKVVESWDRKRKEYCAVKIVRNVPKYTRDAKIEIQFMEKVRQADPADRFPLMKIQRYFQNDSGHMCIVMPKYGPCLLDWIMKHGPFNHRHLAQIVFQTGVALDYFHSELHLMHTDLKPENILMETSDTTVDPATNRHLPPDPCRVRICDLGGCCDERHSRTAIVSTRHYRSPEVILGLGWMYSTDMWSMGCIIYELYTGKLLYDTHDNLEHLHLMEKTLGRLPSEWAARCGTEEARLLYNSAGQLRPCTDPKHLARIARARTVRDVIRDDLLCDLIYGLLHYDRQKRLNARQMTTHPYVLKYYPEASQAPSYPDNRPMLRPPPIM

NLuc::LmxCLK1 = NLuc::LmxCLK1 (Leishmania mexicana, UniProt E9AMP2); test: cell-based; type: cell-based; details: for Target occupancy Run 1 / Target occupancy Run 2 / Target occupancy Average: 10 µM compound, tracer SV366, promastigotes; for Target occupancy Average: mean of two experiments
Protocol: All compounds were tested at a fixed concentration of 10 µM to enable direct comparison of their target occupancy in live cells.
Serially diluted probes (5 µL) were added to 85 µL of cells in culture media or 85 µL of purified protein. Final well volumes were adjusted to 100 µL with sterile Opti-MEM™ I Reduced Serum Medium (Thermo-Scientific) – for wells containing cells; or Kinase Buffer - for wells containing purified protein. For tracer displacement assays, samples were prepared as above, but final volume was brought to 100 µL by addition of vehicle or serially-diluted test compounds. Final DMSO concentration in these assays was 1%. […] Light emissions at 460+10 nm (BRET donor) and at 610+20 nm (BRET acceptor) were sequentially recorded (integration time = 0.5 s, gain = 3600) using a luminometer (BMG LABTECH Clariostar or Biotek Synergy HT). BRET values are reported in milli-BRET (mBRET) units (mBU), obtained by dividing the acceptor luminescence by the donor luminescence and multiplying the result by a factor of 1,000. BRET values were converted to blank-corrected probe occupancies (%) according to equation [1]: (1) Probeoccupancy(%)=X−Z/Y−Z×100 where X = mBRET value in the presence of the test compound and the probe, Y = mBRET value in the presence of probe only, and Z = mBRET value in the absence of probe and test compound. […]

[1] = DSF, 10 µM compound, 2 µM LmxCLK1, Run 1, read-out: ΔTm Run 1
[2] = DSF, 10 µM compound, 2 µM LmxCLK1, Run 2, read-out: ΔTm Run 2
[3] = DSF, 10 µM compound, 2 µM LmxCLK1, mean of two runs, read-out: ΔTm Average
[4] = read-out: Target occupancy Average
[5] = read-out: Target occupancy Run 1
[6] = read-out: Target occupancy Run 2
[7] = DSF, 10 µM compound, 2 µM LmxCLK1, Run 1
[8] = DSF, 10 µM compound, 2 µM LmxCLK1, Run 2
[9] = DSF, 10 µM compound, 2 µM LmxCLK1, mean of two runs

## Cn1cnc(N)c2ncnc1-2 [3-Methyladenine]
LmxCLK1; [1]
  ΔTm at 10 µM: 0.2 °C
LmxCLK1; [2]
  ΔTm at 10 µM: 0 °C
LmxCLK1; [3]
  ΔTm at 10 µM: 0.1 °C
NLuc::LmxCLK1; [4]
  receptor occupancy at 10 µM: -2.2%
NLuc::LmxCLK1; [5]
  receptor occupancy at 10 µM: 2.8%
NLuc::LmxCLK1; [6]
  receptor occupancy at 10 µM: -7.1%

## N#Cc1c(O)c2c(-c3ccc(-c4ccccc4O)cc3)csc2[nH]c1=O [A-769662]
LmxCLK1
  ΔTm Average: -0.1
  ΔTm Run 1: -0.1
  ΔTm Run 2: 0 °C
NLuc::LmxCLK1
  Target occupancy Run 1: 1.2%
  Target occupancy Run 2: -1.3%
  Target occupancy Average: 0.0%

## N#C/C(=C/c1ccc(O)c(O)c1)C(=O)NCc1ccccc1 [AG-490 (Tyrphostin B42)]
LmxCLK1; [7]
  ΔTm Run 1: 0.1 °C
LmxCLK1; [8]
  ΔTm Run 2: 0.2 °C
LmxCLK1; [9]
  ΔTm Average: 0.1 °C
NLuc::LmxCLK1
  Target occupancy Run 1: -25.0%
  Target occupancy Run 2: -10.6%
  Target occupancy Average: -17.8%

## C=CC(=O)Nc1ccc2ncnc(Nc3ccc(OCc4cccc(F)c4)c(Cl)c3)c2c1 [AST-1306]
LmxCLK1; [1]
  ΔTm at 10 µM: -0.1 °C
LmxCLK1; [2]
  ΔTm at 10 µM: -0.4 °C
LmxCLK1; [3]
  ΔTm at 10 µM: -0.2 °C
NLuc::LmxCLK1; [4]
  receptor occupancy at 10 µM: -9.2%
NLuc::LmxCLK1; [5]
  receptor occupancy at 10 µM: -7.7%
NLuc::LmxCLK1; [6]
  receptor occupancy at 10 µM: -10.7%

## O=C(NC1CCNCC1)c1[nH]ncc1NC(=O)c1c(Cl)cccc1Cl [AT7519]
LmxCLK1; [1]
  ΔTm at 10 µM: 0.4 °C
LmxCLK1; [2]
  ΔTm at 10 µM: 0.5 °C
LmxCLK1; [3]
  ΔTm at 10 µM: 0.4 °C
NLuc::LmxCLK1; [4]
  receptor occupancy at 10 µM: -13.8%
NLuc::LmxCLK1; [5]
  receptor occupancy at 10 µM: 6.4%
NLuc::LmxCLK1; [6]
  receptor occupancy at 10 µM: -34%

## N[C@@H]1CCCN(c2c(/C=C3\SC(=O)NC3=O)cccc2-c2ccccc2)C1 [AZD1208]
LmxCLK1; [7]
  ΔTm Run 1: 0.1 °C
LmxCLK1; [8]
  ΔTm Run 2: -0.4 °C
LmxCLK1; [9]
  ΔTm Average: -0.1 °C
NLuc::LmxCLK1
  Target occupancy Run 1: 5.0%
  Target occupancy Run 2: -7.9%
  Target occupancy Average: -1.4%

## CNC(=O)c1cccc(-c2ccc3c(N4CCOC[C@@H]4C)nc(N4CCOC[C@@H]4C)nc3n2)c1 [AZD2014]
LmxCLK1; [1]
  ΔTm at 10 µM: 0.3 °C
LmxCLK1; [2]
  ΔTm at 10 µM: -0.3 °C
LmxCLK1; [3]
  ΔTm at 10 µM: 0 °C
NLuc::LmxCLK1; [4]
  receptor occupancy at 10 µM: -1.4%
NLuc::LmxCLK1; [5]
  receptor occupancy at 10 µM: 8.9%
NLuc::LmxCLK1; [6]
  receptor occupancy at 10 µM: -11.6%

## COc1cc(N2CCC(N)CC2)ccc1Nc1ncc(Cl)c(-c2c[nH]c3ccccc23)n1 [AZD3463]
LmxCLK1; [7]
  ΔTm Run 1: 0.6 °C
LmxCLK1; [8]
  ΔTm Run 2: 0.3 °C
LmxCLK1; [9]
  ΔTm Average: 0.4 °C
NLuc::LmxCLK1
  Target occupancy Run 1: 8.0%
  Target occupancy Run 2: -12.9%
  Target occupancy Average: -2.4%

## N#CC1(c2ccc(NC(=O)c3cccnc3NCc3ccncc3)cc2)CCCC1 [Apatinib]
LmxCLK1; [1]
  ΔTm at 10 µM: -0.2 °C
LmxCLK1; [2]
  ΔTm at 10 µM: -0.4 °C
LmxCLK1; [3]
  ΔTm at 10 µM: -0.3 °C
NLuc::LmxCLK1; [4]
  receptor occupancy at 10 µM: -8.5%
NLuc::LmxCLK1; [5]
  receptor occupancy at 10 µM: -9.2%
NLuc::LmxCLK1; [6]
  receptor occupancy at 10 µM: -7.8%

## C[C@H]1[C@H](C)CC[C@]2(C(=O)O)CC[C@]3(C)C(=CC[C@@H]4[C@@]5(C)C[C@@H](O)[C@H](O)[C@@](C)(CO)[C@@H]5CC[C@]43C)[C@H]12 [Asiatic Acid]
LmxCLK1; [1]
  ΔTm at 10 µM: 0.2 °C
LmxCLK1; [2]
  ΔTm at 10 µM: 0.1 °C
LmxCLK1; [3]
  ΔTm at 10 µM: 0.2 °C
NLuc::LmxCLK1; [4]
  receptor occupancy at 10 µM: -4.4%
NLuc::LmxCLK1; [5]
  receptor occupancy at 10 µM: 8.6%
NLuc::LmxCLK1; [6]
  receptor occupancy at 10 µM: -17.4%

## Cc1ccc(S(=O)(=O)/C=C/C#N)cc1 [BAY 11-7082]
LmxCLK1; [7]
  ΔTm Run 1: -0.4 °C
LmxCLK1; [8]
  ΔTm Run 2: -0.2 °C
LmxCLK1; [9]
  ΔTm Average: -0.3 °C
NLuc::LmxCLK1
  Target occupancy Run 1: -17.1%
  Target occupancy Run 2: -14.7%
  Target occupancy Average: -15.9%

## CN(C)Cc1cccc(N/C(=C2\C(=O)Nc3cc(C(N)=O)ccc32)c2ccccc2)c1 [BIX 02188]
LmxCLK1; [1]
  ΔTm at 10 µM: 0.1 °C
LmxCLK1; [2]
  ΔTm at 10 µM: -0.2 °C
LmxCLK1; [3]
  ΔTm at 10 µM: 0 °C
NLuc::LmxCLK1; [4]
  receptor occupancy at 10 µM: -6.5%
NLuc::LmxCLK1; [5]
  receptor occupancy at 10 µM: 4.1%
NLuc::LmxCLK1; [6]
  receptor occupancy at 10 µM: -17%

## Cc1ccc2nc(NCCN)c3ncc(C)n3c2c1 [BMS-345541]
LmxCLK1; [1]
  ΔTm at 10 µM: -0.1 °C
LmxCLK1; [2]
  ΔTm at 10 µM: -0.3 °C
LmxCLK1; [3]
  ΔTm at 10 µM: -0.2 °C
NLuc::LmxCLK1; [4]
  receptor occupancy at 10 µM: -1.1%
NLuc::LmxCLK1; [5]
  receptor occupancy at 10 µM: 7.2%
NLuc::LmxCLK1; [6]
  receptor occupancy at 10 µM: -9.4%

## COc1cc(Nc2c(C#N)cnc3cc(OCCCN4CCN(C)CC4)c(OC)cc23)c(Cl)cc1Cl [Bosutinib (SKI-606)]
LmxCLK1; [7]
  ΔTm Run 1: 0.5 °C
LmxCLK1; [8]
  ΔTm Run 2: 0.6 °C
LmxCLK1; [9]
  ΔTm Average: 0.5 °C
NLuc::LmxCLK1
  Target occupancy Run 1: 7.7%
  Target occupancy Run 2: -36.0%
  Target occupancy Average: -14.2%

## O=C(/C=C/c1ccc(O)c(O)c1)c1ccc(O)cc1O [Butein]
LmxCLK1; [1]
  ΔTm at 10 µM: 0 °C
LmxCLK1; [2]
  ΔTm at 10 µM: 0.4 °C
LmxCLK1; [3]
  ΔTm at 10 µM: 0.2 °C
NLuc::LmxCLK1; [4]
  receptor occupancy at 10 µM: -10.8%
NLuc::LmxCLK1; [5]
  receptor occupancy at 10 µM: 3.3%
NLuc::LmxCLK1; [6]
  receptor occupancy at 10 µM: -25%

## CC[C@H](Nc1ncnc2[nH]cnc12)c1nc2cccc(F)c2c(=O)n1-c1ccccc1 [CAL-101 (Idelalisib)]
LmxCLK1; [7]
  ΔTm Run 1: -0.2 °C
LmxCLK1; [8]
  ΔTm Run 2: -0.2 °C
LmxCLK1; [9]
  ΔTm Average: -0.2 °C
NLuc::LmxCLK1
  Target occupancy Run 1: 0.2%
  Target occupancy Run 2: 0.1%
  Target occupancy Average: 0.1%

## O=C1NC(=O)C(=Cc2ccc(-c3ccc(F)cc3)o2)S1 [CAY10505]
LmxCLK1; [7]
  ΔTm Run 1: 0.1 °C
LmxCLK1; [8]
  ΔTm Run 2: -0.1 °C
LmxCLK1; [9]
  ΔTm Average: 0.0 °C
NLuc::LmxCLK1
  Target occupancy Run 1: -12.3%
  Target occupancy Run 2: 10.0%
  Target occupancy Average: -1.2%

## COc1cc2ncnc(Oc3cccc(NC(=O)Nc4cc(C(C)(C)C(F)(F)F)on4)c3)c2cc1OC [CEP-32496]
LmxCLK1; [1]
  ΔTm at 10 µM: -0.4 °C
LmxCLK1; [2]
  ΔTm at 10 µM: -0.2 °C
LmxCLK1; [3]
  ΔTm at 10 µM: -0.3 °C
NLuc::LmxCLK1; [4]
  receptor occupancy at 10 µM: -3.7%
NLuc::LmxCLK1; [5]
  receptor occupancy at 10 µM: -2.2%
NLuc::LmxCLK1; [6]
  receptor occupancy at 10 µM: -5.2%

## C=CC(=O)Nc1cccc(Nc2nc(Nc3ccc(Oc4ccnc(C(=O)NC)c4)cc3)ncc2F)c1 [CNX-774]
LmxCLK1; [7]
  ΔTm Run 1: -0.3 °C
LmxCLK1; [8]
  ΔTm Run 2: 0.0 °C
LmxCLK1; [9]
  ΔTm Average: -0.2 °C
NLuc::LmxCLK1
  Target occupancy Run 1: -4.4%
  Target occupancy Run 2: -9.3%
  Target occupancy Average: -6.8%

## CN1CCCN(C(=O)c2cccc(-c3ccc(/C=C4/C(=O)Nc5ccc(Cl)cc54)o3)c2)CC1.Cl [CX-6258 HCl]
LmxCLK1; [7]
  ΔTm Run 1: 0.1 °C
LmxCLK1; [8]
  ΔTm Run 2: -0.4 °C
LmxCLK1; [9]
  ΔTm Average: -0.1 °C
NLuc::LmxCLK1
  Target occupancy Run 1: -0.5%
  Target occupancy Run 2: -26.8%
  Target occupancy Average: -13.6%

## C[C@H](Nc1ncnc2nc[nH]c12)c1cc2cccc(Cl)c2c(=O)n1-c1ccccc1 [IPI-145 (INK1197)]
NLuc::LmxCLK1
  Target occupancy Run 1: -2.8%
  Target occupancy Run 2: 0.6%
  Target occupancy Average: -1.1%
